Measured values: US20200239530A1, “COMPOUNDS AND METHODS OF MODULATING PROTEIN DEGRADATION” (Vividion Therapeutics, Inc., priority 2017, published 2020)

Legend:
[1] = target: T1, EEF1A1 Elongation factor 1-alpha 1 (Homo sapiens, UniProt P68104); assay: Cysteine liganding, probe competition; type: binding
T1 construct: 200 μL of lysate containing 5 mg/ml proteome was treated with 2 μL of 100× compound stock; endogenous in cells
T1 sequence (P68104 1-462): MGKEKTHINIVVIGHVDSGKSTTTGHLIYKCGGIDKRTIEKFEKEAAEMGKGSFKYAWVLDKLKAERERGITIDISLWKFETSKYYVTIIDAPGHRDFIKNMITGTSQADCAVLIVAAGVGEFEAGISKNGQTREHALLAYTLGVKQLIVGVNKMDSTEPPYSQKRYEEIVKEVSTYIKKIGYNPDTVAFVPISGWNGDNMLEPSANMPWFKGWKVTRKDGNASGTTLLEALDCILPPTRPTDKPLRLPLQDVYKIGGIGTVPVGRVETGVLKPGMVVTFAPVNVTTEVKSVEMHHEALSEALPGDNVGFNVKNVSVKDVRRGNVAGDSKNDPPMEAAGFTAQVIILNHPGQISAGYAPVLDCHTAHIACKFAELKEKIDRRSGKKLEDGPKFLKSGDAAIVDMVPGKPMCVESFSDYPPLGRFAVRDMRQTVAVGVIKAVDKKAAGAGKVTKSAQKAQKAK
Summary of the method: (§1)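 Probe competition in native proteome: 5 mg/ml lysate, compound 1 hr 25° C, then desthiobiotin iodoacetamide (10 mM stock) 1 hr 25° C; acetone ppt, urea/DTT reduction, iodoacetamide alkylation, trypsin, streptavidin pull-down.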

[2] = target: T2, KIAA0528 Uncharacterized protein KIAA0528 (Homo sapiens, UniProt Q86YS7); assay: Cysteine liganding, probe competition; type: binding
T2 construct: Cells were resuspended in cold PBS on ice and sonicated with a probe sonicator to achieve lysis; endogenous in cells
T2 sequence (Q86YS7 1-1000): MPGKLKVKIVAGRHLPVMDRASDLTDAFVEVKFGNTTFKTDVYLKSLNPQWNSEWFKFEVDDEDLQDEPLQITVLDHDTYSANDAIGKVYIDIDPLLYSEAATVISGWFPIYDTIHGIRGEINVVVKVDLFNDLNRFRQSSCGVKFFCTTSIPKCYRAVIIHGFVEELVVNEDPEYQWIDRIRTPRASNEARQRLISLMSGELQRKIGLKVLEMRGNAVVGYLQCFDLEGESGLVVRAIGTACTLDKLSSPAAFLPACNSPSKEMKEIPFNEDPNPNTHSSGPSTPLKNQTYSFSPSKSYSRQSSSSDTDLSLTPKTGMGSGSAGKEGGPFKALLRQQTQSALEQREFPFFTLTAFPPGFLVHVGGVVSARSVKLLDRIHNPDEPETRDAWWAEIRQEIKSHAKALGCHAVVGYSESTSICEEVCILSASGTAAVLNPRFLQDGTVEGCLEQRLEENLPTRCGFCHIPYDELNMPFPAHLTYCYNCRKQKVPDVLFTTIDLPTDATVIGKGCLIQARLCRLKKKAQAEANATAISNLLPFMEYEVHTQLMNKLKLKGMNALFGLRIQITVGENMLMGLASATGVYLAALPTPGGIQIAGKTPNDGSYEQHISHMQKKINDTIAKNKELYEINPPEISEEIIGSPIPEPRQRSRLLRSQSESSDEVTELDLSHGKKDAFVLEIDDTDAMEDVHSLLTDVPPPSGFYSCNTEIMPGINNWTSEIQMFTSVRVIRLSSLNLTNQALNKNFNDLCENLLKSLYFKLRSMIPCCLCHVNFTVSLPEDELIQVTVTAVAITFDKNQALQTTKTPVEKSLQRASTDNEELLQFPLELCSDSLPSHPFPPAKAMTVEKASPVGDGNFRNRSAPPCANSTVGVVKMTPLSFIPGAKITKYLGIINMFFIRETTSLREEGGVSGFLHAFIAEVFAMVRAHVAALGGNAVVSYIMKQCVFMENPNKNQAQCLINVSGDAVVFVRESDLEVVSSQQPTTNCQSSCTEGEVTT
Summary of the method: as §1

[3] = EEF1A1 Res# 363, uniprot P68104
[4] = EEF1A1 Res# 370, uniprot P68104

Structure (SMILES)	Liganded [1, 3]	Liganded [1, 4]	Liganded ([2]; KIAA0528 Res# 867, uniprot Q86YS7)	100 ave ([2]; uniprot Q86YS7)	500 Max ([2]; uniprot Q86YS7)	500 ave ([2]; uniprot Q86YS7)	100 Max ([2]; uniprot Q86YS7, unit assumed) [%]
COc1ccc2c(c1)CCCN2C(=O)CCl [KB02]	YES	YES	YES				
O=C(CCl)Nc1cc(C(F)(F)F)cc(C(F)(F)F)c1 [KBO3]	YES	YES		−6.4125	46.81	33.415	7.23
